Data reported in patent US11104926B1, “Pro-fluorophore compounds and use thereof” (Vanderbilt University, priority 2018, dated 2021).
Entries after “also recorded” stand apart in the source; their conditions may differ.

Columns and labels:
[1] = test system: HEK293 cells stably expressing PLE; test: Pro-fluorophore activation in PLE-expressing HEK293 cells (kinetic imaging plate reader); type: cell-based; conditions: for Fold Increase in Fluorescence / rank of fold increase in fluorescence in cells (in words): 10 μM; for Fold Increase in Fluorescence: PLE-expressing HEK293 divided by wild-type HEK293, 5 min after addition, mean (SEM) of 4 replicates; for rank of fold increase in fluorescence in cells (in words): PLE-expressing vs wild-type HEK293 (Table 2)
Excerpt: Cell-based assays. To construct a PLE-expressing HEK293 cell line, a PLE-IRES-mCherry construct was excised from the pCAG-PLE-IRES-mCherry (Addgene plasmid #45766) vector using Not1-HF and Xho1 (Tian et al., Proceedings of the National Academy of Sciences, 2012, 109, 4756-4761). The PLE-IRES-mCherry insert was then cloned into pcDNA3.1/Zeo vector (Thermo Fisher Scientific). The pcDNA3.1/Zeo PLE-IRES-mCherry vector was introduced to HEK293 (ATCC) using FuGENE HD (Promega). PLE-expressing cells were selected for using Zeocin.
(§1) Wild-type HEK293 and PLE-expressing HEK293 cells maintained in α-MEM (Corning) containing 10% vol/vol fetal bovine serum (Thermo-Fisher Scientific) and 1% vol/vol GlutaGro (Corning) (cell culture medium) were seeded with 20,000 cells/well in 20 μL of cell culture medium into amine-coated, clear-bottom, and black-walled 384-well plate (BD Biosciences). Plates were then incubated overnight at 37° C. in a 5% CO2 cell culture incubator. Following overnight incubation, cell culture medium was removed and replaced with 20 μL/well assay buffer. Rhodamine-amide profluorophores dissolved in DMSO at 10 mM were diluted into assay buffer at concentrations ranging from 50 μM-70 nM. Forty μL/well of pro-fluorophore solutions were placed in polypropylene 384-well plates (Greiner). Immediately before the beginning of data acquisition, the assay buffer was removed from the cell-containing plates. The cell-containing and pro-fluorophore containing plates where then immediately loaded into a Panoptic kinetic imaging plate reader. Images were acquired at 1 Hz (excitation 480±20 nm and 540±30 nm) for 30 seconds, then 20 μL/well of the pro-fluorophore solutions were added to the cell-containing plates and imaging continued for an additional 15 minutes.

[2] = test system: porcine liver esterase (PLE); test: In vitro activation of rhodamine-amide pro-fluorophores by PLE (kinetic fluorescence plate assay); type: biochemical; conditions: for quality as PLE substrate (in words): in vitro and in cells, comparison within the library; for conversion to the fluorescent Rhodamine 110 by PLE (in words): 10 μM, 2 min, 22° C., 30 nM PLE (FIG. 2B); for Km: Table 1, PLE activation
Experimental: To investigate the ability of PLE to activate various rhodamine-amide pro-fluorophores, the compounds were dissolved in DMSO to a concentration of 100 mM and serially diluted in DMSO in 10, 3-fold steps. The compounds were then added to the well of a low volume, cyclic olefin copolymer 384-well plate (Labcyte). Forty nL/well of pro-fluorophore solution were transferred to black-walled, clear-bottom, polystyrene 384-well plates (Greiner) using an Echo plate reformatter (Labcyte). Following compound transfer, […] of phosphate-buffered saline (PBS) was added to each well and thoroughly mixed. PLE (Sigma, 46058) dissolved in PBS at a concentration of 60 nM and 40 μL of this solution was added to the wells of a polypropylene 384-well plate (Greiner). Pro-fluorophore-containing and PLE-containing plates were placed in a Panoptic kinetic imaging plate reader (WaveFront Biosciences). Images were acquired at 1 Hz (excitation 480±20 nm and 540±30 nm) for 30 seconds, then 20 μL/well of the PLE solutions were added to the pro-fluorophore-containing plates and imaging continued for an additional 15 minutes. In addition to the pro-fluorophore-containing plates, a plate containing PBS only was imaged as was a plate containing a concentration series of Rhodamine 110.

[3] = test system: HEK293 cells expressing PLE; test: Confocal fluorescence microscopy of PLE-expressing HEK293 cells; type: cell-based; conditions: treated 1 h at 22° C. (FIG. 4 panels a-c)
Experimental: (§2) Microscopy. Confocal images were acquired using a Nikon MR (Nikon Instruments) laser scanning confocal microscope equipped with plan apochromat violet corrected 1.4 numerical aperture (N.A.) oil immersion lens. Hoescht images were obtained using a 405 nm laser and 425-475 nm emission filter. Pro-fluorophore (1c) was imaged using a 488 nm laser and 500-550 nm emission filter. Cells for imaging study were cultured overnight on no. 1 chambered slides (lab-tek II, ThermoFisher) in medium previously described in kinetic imaging assays. Medium was removed and pro-fluorophore was added to the slide chambers in assay buffer containing Hoescht, 1 μg/mL. […]

wild-type HEK293 cells [4] = test: Pro-fluorophore activation in wild-type HEK293 cells (kinetic imaging plate reader); type: cell-based; conditions: 3 μM (FIG. 3A)
Experimental: as §1

wild-type HEK293 cells [5] = test: Confocal fluorescence microscopy of wild-type HEK293 cells; type: cell-based; conditions: treated 1 h at 22° C. (FIG. 4 panels d-f)
Experimental: as §2

[6] = listed as N,N′-dipropionyl rhodamine

CC(=O)Nc1ccc2c(c1)Oc1cc(NC(C)=O)ccc1C21OC(=O)c2ccccc21 [Compound 1b, N,N′-bis-acetyl rhodamine]
Fold Increase in Fluorescence [1]: 37 (±0.2)
quality as PLE substrate (in words) [2]: less preferred substrate; also recorded: poor substrate

CCC(=O)Nc1ccc2c(c1)Oc1cc(NC(=O)CC)ccc1C21OC(=O)c2ccccc21 [Compound 1c, N,N′-bis-propionyl rhodamine]
confocal fluorescence in PLE-expressing HEK293 cells (in words) [3]: bright, predominantly cytoplasmic, fluorescence
confocal fluorescence in PLE-expressing HEK293 cells (in words) [3, 6]: bright, cytoplasmic fluorescence
fluorescence upon addition to wild-type HEK293 cells (in words) (wild-type HEK293 cells [4]): no increase in fluorescence was observed
fluorescence upon addition to PLE-expressing HEK293 cells (in words) ([1]; 3 μM, 384-well plate (FIG. 3A)): rapid increase in fluorescence
rank of fold increase in fluorescence in cells (in words) [1]: largest fold increase in fluorescence
Fold Increase in Fluorescence [1]: 725 (±2.1)
confocal fluorescence in wild-type HEK293 cells (in words) (wild-type HEK293 cells [5]): no fluorescence was observed
conversion to the fluorescent Rhodamine 110 by PLE (in words) [2]: most effective conversion
quality as PLE substrate (in words) [2]: good PLE substrates
quality as PLE substrate (in words) [2, 6]: better substrates than the others

CC(C)(C)C(=O)Nc1ccc2c(c1)Oc1cc(NC(=O)C(C)(C)C)ccc1C21OC(=O)c2ccccc21 [Compound 1e, N,N′-bis-pivaloyl rhodamine]
Fold Increase in Fluorescence [1]: 87 (±0.4)

O=C1OC2(c3ccc(NC(=O)C(F)(F)F)cc3Oc3cc(NC(=O)C(F)(F)F)ccc32)c2ccccc21 [Compound 1a, N,N′ bis-triflouroacetyl rhodamine]
rank of fold increase in fluorescence in cells (in words) [1]: largest fold increase in fluorescence
rank of fold increase in fluorescence in cells (in words) ([1]; listed as N,N′-ditrifluoroacetyl rhodamine): largest increase in fluorescence
Fold Increase in Fluorescence [1]: 5701 (±26.4)
conversion to the fluorescent Rhodamine 110 by PLE (in words) [2]: most effective conversion
Km [2]: 2.06 µM
quality as PLE substrate (in words) [2]: good PLE substrates
quality as PLE substrate (in words) ([2]; listed as N,N′-ditrifluoroacetyl): better substrates than the others

CC(C)C(=O)Nc1ccc2c(c1)Oc1cc(NC(=O)C(C)C)ccc1C21OC(=O)c2ccccc21 [Compound 1d, N,N′-bis-isobutyl rhodamine]
Fold Increase in Fluorescence [1]: 458 (±1.6)

O=C(Nc1ccc2c(c1)Oc1cc(NC(=O)c3ccccc3)ccc1C21OC(=O)c2ccccc21)c1ccccc1 [Compound 1f, N,N′-bis-benzoyl rhodamine]
Fold Increase in Fluorescence [1]: 119 (±1.2)
Km [2]: 7.45 µM
